Data from patent US12534457B2, “Heteroaryl derivative compounds, and uses thereof” (Voronoi Inc., priority 2021, dated 2026).

system: Ba/F3 cells expressing EGFR Del19/C797S (EGFR DC); assay: Proliferation inhibitory activity, Ba/F3 cells expressing EGFR Del19/C797S (CellTiter-Glo); assay type: cell-based; conditions: Mus musculus, BaF3, 72 hours of compound treatment
Method in brief: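 Viability after 72 h of compound exposure was measured by luminescence (CellTiter-Glo) in Ba/F3 lines transduced with mutant EGFR. Final concentrations spanned 0.2 nM–5 μM over 12 threefold steps. Growth relative to untreated control gave GI50 values; each test was run three times.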

SMILES	GI50
COc1cc(N2CCOCC2)c(-c2cnn(C)c2)cc1Nc1cc(N2OCC[C@@H]2c2cc(F)cc(F)c2)ncn1 [Example 7, (R)-6-(3-(3,5-difluorophenyl)isoxazolidin-2-yl)-N-(2-methoxy-5-(1-methyl-1H-pyrazol-4-yl)-4-morpholinophenyl)pyrimidin-4-amine]	50 to 500 nM
CN1CCN(C2CCN(c3cc(Nc4cc(N5OCC[C@@H]5c5cc(F)cc(F)c5)ncn4)cc(S(C)(=O)=O)c3)CC2)CC1 [Example 11, (R)-6-(3-(3,5-difluorophenyl)isoxazolidin-2-yl)-N-(3-(4-(4-methylpiperazin-1-yl)piperidin-1-yl)-5-(methylsulfonyl)phenyl)pyrimidin-4-amine]	50 to 500 nM
CN1CCN(c2ccc(Nc3cc(N4OCC[C@@H]4c4ccccc4)ncn3)cc2)CC1 [Example 1, (R)—N-(4-(4-methylpiperazin-1-yl)phenyl)-6-(3-phenylisoxazolidin-2-yl)pyrimidin-4-amine]	< 50 nM
CN1CCN(c2cc(Nc3cc(N4OCC[C@@H]4c4cc(F)cc(F)c4)ncn3)cc(S(C)(=O)=O)c2)CC1 [Example 13, (R)-6-(3-(3,5-difluorophenyl)isoxazolidin-2-yl)-N-(3-(4-methylpiperazin-1-yl)-5-(methylsulfonyl)phenyl)pyrimidin-4-amine]	50 to 500 nM
CN1CCN(c2cc(Nc3cc(N4OCC[C@@H]4c4cc(F)cc(F)c4)ncn3)cc(C(C)(C)C#N)c2)CC1 [Example 15, (R)-2-(3-((6-(3-(3,5-difluorophenyl)isoxazolidin-2-yl)pyrimidin-4-yl)amino)-5-(4-methylpiperazin-1-yl)phenyl)-2-methylpropanenitrile]	< 50 nM
CN1CCN(c2cc(OCC(F)(F)F)c(Nc3cc(N4OCC[C@@H]4c4ccccc4)ncn3)cc2-c2cnn(C)c2)CC1 [Example 166, (R)—N-(5-(1-methyl-1H-pyrazol-4-yl)-4-(4-methylpiperazin-1-yl)-2-(2,2,2-trifluoroethoxy)phenyl)-6-(3-phenylisoxazolidin-2-yl)pyrimidin-4-amine]	< 50 nM
COc1cc(N2CCC(N3CCN(C)[C@@H](C)C3)CC2)ccc1Nc1cc(N2OCC[C@@H]2c2cccc(F)c2F)ncn1 [Example 214, 6-((R)-3-(2,3-difluorophenyl)isoxazolidin-2-yl)-N-(4-(4-((S)-3,4-dimethylpiperazin-1-yl)piperidin-1-yl)-2-methoxyphenyl)pyrimidin-4-amine]	< 50 nM
Cc1cc(N2CCC(N3CCN(C)CC3)CC2)ccc1Nc1cc(N2OCC[C@@H]2c2ccccc2)ncn1 [Example 52, (R)—N-(2-methyl-4-(4-(4-methylpiperazin-1-yl)piperidin-1-yl)phenyl)-6-(3-phenylisoxazolidin-2-yl)pyrimidin-4-amine]	< 50 nM
CN1CCN(C2CCN(c3ccc(Nc4cc(N5OCC[C@@H]5c5cc(F)cc(F)c5)ncn4)cc3)CC2)CC1 [Example 17, (R)-6-(3-(3,5-difluorophenyl)isoxazolidin-2-yl)-N-(4-(4-(4-methylpiperazin-1-yl)piperidin-1-yl)phenyl)pyrimidin-4-amine]	50 to 500 nM
CCN1C2CC1CN(C1CCN(c3ccc(Nc4cc(N5OCC[C@@H]5c5cccc(F)c5F)ncn4)c(OC)c3)CC1)C2 [Example 219, 6-((R)-3-(2,3-difluorophenyl)isoxazolidin-2-yl)-N-(4-(4-(6-ethyl-3,6-diazabicyclo[3.1.1]heptan-3-yl)piperidin-1-yl)-2-methoxyphenyl)pyrimidin-4-amine]	< 50 nM
O=C1CCCN1c1ccc(Nc2cc(N3OCC[C@@H]3c3ccccc3)ncn2)cc1 [Example 75, (R)-1-(4-((6-(3-phenylisoxazolidin-2-yl)pyrimidin-4-yl)amino)phenyl)pyrrolidin-2-one]	< 50 nM
CN1CCN(C2CCN(c3ccc(Nc4cc(N5OCC[C@@H]5c5ccccc5)ncn4)cc3)CC2)CC1 [Example 54, (R)—N-(4-(4-(4-methylpiperazin-1-yl)piperidin-1-yl)phenyl)-6-(3-phenylisoxazolidin-2-yl)pyrimidin-4-amine]	< 50 nM
CC(C)(C)OC(=O)N1CCc2ccc(Nc3cc(N4OCC[C@@H]4c4ccccc4)ncn3)cc2C1 [Example 134, tert-butyl (R)-7-((6-(3-phenylisoxazolidin-2-yl)pyrimidin-4-yl)amino)-3,4-dihydroisoquinoline-2 (1H)-carboxylate]	< 50 nM
COc1cc(SCCN(C)C)ccc1Nc1cc(N2OCC[C@@H]2c2ccccc2)ncn1 [Example 65, (R)—N-(4-((2-(dimethylamino)ethyl)thio)-2-methoxyphenyl)-6-(3-phenylisoxazolidin-2-yl)pyrimidin-4-amine]	< 50 nM
CO/N=C(\C)c1cc(Nc2cc(N3OCC[C@@H]3c3cccc(F)c3F)ncn2)c(OC)cc1N1CCC(N2CCN(C)CC2)CC1 [Example 146, (R,E)-1-(5-((6-(3-(2,3-difluorophenyl)isoxazolidin-2-yl)pyrimidin-4-yl)amino)-4-methoxy-2-(4-(4-methylpiperazin-1-yl)piperidin-1-yl)phenyl)ethan-1-one O-methyl oxime]	< 50 nM
COc1cc(N2CCN(C3CCN(C)CC3)C[C@H]2C)ccc1Nc1cc(N2OCC[C@@H]2c2ccccc2)ncn1 [Example 99, N-(2-methoxy-4-((R)-2-methyl-4-(1-methylpiperidin-4-yl)piperazin-1-yl)phenyl)-6-((R)-3-phenylisoxazolidin-2-yl)pyrimidin-4-amine]	< 50 nM
COc1cc(N2CCC(N3CCN(C4CC4)C(C)(C)C3)CC2)ccc1Nc1cc(N2OCC[C@@H]2c2ccccc2)ncn1 [Example 61, (R)—N-(4-(4-(4-cyclopropyl-3,3-dimethylpiperazin-1-yl)piperidin-1-yl)-2-methoxyphenyl)-6-(3-phenylisoxazolidin-2-yl)pyrimidin-4-amine]	< 50 nM
CCC(=O)Nc1cc(Nc2cc(N3OCC[C@@H]3c3ccc(F)cc3F)ncn2)c(OC)cc1N1CCC(N2CCC(N3CCN(C)CC3)CC2)CC1 [Example 87, (R)—N-(5-((6-(3-(2,4-difluorophenyl)isoxazolidin-2-yl)pyrimidin-4-yl)amino)-4-methoxy-2-(4-(4-methylpiperazin-1-yl)-[1,4′-bipiperidin]-1′-yl)phenyl)propionamide]	< 50 nM
CCc1cc(Nc2cc(N3OCC[C@@H]3c3cc(F)cc(F)c3)ncn2)c(OC)cc1N1CCC(N2CCN(C)CC2)CC1 [Example 25, (R)-6-(3-(3,5-difluorophenyl)isoxazolidin-2-yl)-N-(5-ethyl-2-methoxy-4-(4-(4-methylpiperazin-1-yl)piperidin-1-yl)phenyl)pyrimidin-4-amine]	< 50 nM
CN1OCC[C@H]1c1ccc(Nc2cc(N3OCC[C@@H]3c3cccc(F)c3F)ncn2)cc1 [Example 176, 6-((R)-3-(2,3-difluorophenyl)isoxazolidin-2-yl)-N-(4-((S)-2-methylisoxazolidin-3-yl)phenyl)pyrimidin-4-amine]	50 to 500 nM
COc1cc(N2CCC(N3CCN(C)CC3)CC2)ccc1Nc1cc(N2OCC[C@@H]2c2ccc3ccccc3c2)ncn1 [Example 89, (R)—N-(2-methoxy-4-(4-(4-methylpiperazin-1-yl)piperidin-1-yl)phenyl)-6-(3-(naphthalen-2-yl)isoxazolidin-2-yl)pyrimidin-4-amine]	50 to 500 nM
COc1cc2c(cc1Nc1cc(N3OCC[C@@H]3c3cc(F)cc(F)c3)ncn1)NCC21CCN(C)CC1 [Example 154, (R)—N-(6-(3-(3,5-difluorophenyl)isoxazolidin-2-yl)pyrimidin-4-yl)-5-methoxy-1′-methylspiro[indolin-3,4′-piperidin]-6-amine]	< 50 nM
CN1CCN(c2ccc(Nc3cc(N4OCC[C@@H]4c4cc(F)cc(F)c4)ncn3)cc2)CC1 [Example 18, (R)-6-(3-(3,5-difluorophenyl)isoxazolidin-2-yl)-N-(4-(4-methylpiperazin-1-yl)phenyl)pyrimidin-4-amine]	50 to 500 nM
COc1cc2c(cc1Nc1cc(N3OCC[C@@H]3c3ccccc3)ncn1)OC[C@H]1C[C@@H](N3CCN(C4CC4)CC3)CCN21 [Example 49, (6aR,8S)-8-(4-cyclopropylpiperazin-1-yl)-2-methoxy-N-(6-((R)-3-phenylisoxazolidin-2-yl)pyrimidin-4-yl)-6,6a,7,8,9,10-hexahydrobenzo[b]pyrido[1,2-d] [1,4]oxazin-3-amine]	< 50 nM
CN1CCN(c2ccc(Nc3cc(N4OCC[C@@H]4c4cncc(Cl)c4)ncn3)cc2)CC1 [Example 180, (R)-6-(3-(5-chloropyridin-3-yl)isoxazolidin-2-yl)-N-(4-(4-methylpiperazin-1-yl)phenyl)pyrimidin-4-amine]	50 to 500 nM
COc1cc(N2CCC(N3CCC(N(C)C)CC3)CC2)ccc1Nc1cc(N2OCC[C@@H]2c2ccccc2)ncn1 [Example 115, (R)-1′-(3-methoxy-4-((6-(3-phenylisoxazolidin-2-yl)pyrimidin-4-yl)amino)phenyl)-N,N-dimethyl-[1,4′-bipiperidin]-4-amine]	< 50 nM
c1ccc([C@H]2CCON2c2cc(Nc3ccc(N4CCN(C5COC5)CC4)cc3)ncn2)cc1 [Example 124, (R)—N-(4-(4-(oxetan-3-yl)piperazin-1-yl)phenyl)-6-(3-phenylisoxazolidin-2-yl)pyrimidin-4-amine]	< 50 nM

system: Ba/F3 cells expressing EGFR L858R/C797S (EGFR LC); assay: Proliferation inhibitory activity, Ba/F3 cells expressing EGFR L858R/C797S (CellTiter-Glo); assay type: cell-based; conditions: Mus musculus, BaF3, 72 hours of compound treatment
Method: The following experiments were performed to evaluate the inhibitory activity of the compounds according to the present disclosure on Ba/F3 proliferation expressing EGFR C797S, L861Q, G719A, S768I, L718Q, and/or G724S mutations.
For Ba/F3 cells, RPMI-1640 containing 10% FBS and 5 ng/ml IL-3 (R&D Systems) was used. Transduced Ba/F3 cells were cultured after adding 1 μg/ml puromycin (Invitrogen) to the same medium.
At 24 hours before treatment with the compounds, 3000 to 5000 cells were aliquoted into each well of a white clear bottom 96 well plate (Corning). The compounds were diluted in dimethyl sulfoxide (3 times dilution, 12 concentrations in total), and injected in an amount of 1 μl so that the final concentration was 0.2 nM to 5 uM. For measurement of living cells, after 72 hours of compound treatment, the cells were stored at room temperature for 10 min using CellTiter-Glo luminescentcell-viability reagent (Promega), and then luminescence intensity was measured using a reader (SynergyNeo, Biotek). Each test was repeated three times. Result values were calculated as the cell growth rate (%) compared to the control. The graphs were created using GraphPad Prism version 8.3.0 program and the GI50 values were calculated.

SMILES	GI50
COc1cc(N2CCOCC2)c(-c2cnn(C)c2)cc1Nc1cc(N2OCC[C@@H]2c2cc(F)cc(F)c2)ncn1 [Example 7, (R)-6-(3-(3,5-difluorophenyl)isoxazolidin-2-yl)-N-(2-methoxy-5-(1-methyl-1H-pyrazol-4-yl)-4-morpholinophenyl)pyrimidin-4-amine]	50 to 500 nM
CN1CCN(C2CCN(c3cc(Nc4cc(N5OCC[C@@H]5c5cc(F)cc(F)c5)ncn4)cc(S(C)(=O)=O)c3)CC2)CC1 [Example 11, (R)-6-(3-(3,5-difluorophenyl)isoxazolidin-2-yl)-N-(3-(4-(4-methylpiperazin-1-yl)piperidin-1-yl)-5-(methylsulfonyl)phenyl)pyrimidin-4-amine]	50 to 500 nM
CN1CCN(c2ccc(Nc3cc(N4OCC[C@@H]4c4ccccc4)ncn3)cc2)CC1 [Example 1, (R)—N-(4-(4-methylpiperazin-1-yl)phenyl)-6-(3-phenylisoxazolidin-2-yl)pyrimidin-4-amine]	< 50 nM
CN1CCN(c2cc(Nc3cc(N4OCC[C@@H]4c4cc(F)cc(F)c4)ncn3)cc(S(C)(=O)=O)c2)CC1 [Example 13, (R)-6-(3-(3,5-difluorophenyl)isoxazolidin-2-yl)-N-(3-(4-methylpiperazin-1-yl)-5-(methylsulfonyl)phenyl)pyrimidin-4-amine]	50 to 500 nM
CN1CCN(c2cc(Nc3cc(N4OCC[C@@H]4c4cc(F)cc(F)c4)ncn3)cc(C(C)(C)C#N)c2)CC1 [Example 15, (R)-2-(3-((6-(3-(3,5-difluorophenyl)isoxazolidin-2-yl)pyrimidin-4-yl)amino)-5-(4-methylpiperazin-1-yl)phenyl)-2-methylpropanenitrile]	< 50 nM
